{
  "source": "paper PMC10671849",
  "about": "“Synthesis and Evaluation of Marine-Inspired Compounds Result in Hybrids with Antitrypanosomal and Antileishmanial Activities” (Marine Drugs, 2023)",
  "format_in_all_cases": "cell-based",
  "key": {"[1]": {"system": "Staphylococcus aureus ATCC 25923", "assay": "Antibacterial broth microdilution (CLSI M100-S25), MIC/MLC", "procedure": "(§1) All tested compounds (9a–9d, 10a–10c, 13, 14, and eugenol (1)) were prepared in DMSO (Sigma-Aldrich, St. Louis, MO, USA) at a concentration of 10 mg/mL. The reference drugs used (voriconazole (Sigma-Aldrich, St. Louis, MO, USA) for fungi and quality control; gentamicin (Sigma-Aldrich, St. Louis, MO, USA) for bacterial and quality control) were prepared at 6.4 mg/mL. The stock solutions of the compounds were stored at –20 °C until immediately before the assays and then were diluted in fresh culture medium, RPMI-1640 medium (Biochrom AG, Berlin, Germany) buffered with 3-(N-morpholino)propanesulfonic acid (MOPS—Sigma-Aldrich, St. Louis, MO, USA) for fungi and cation-adjusted Mueller–Hinton broth (MHBII—Becton Dickinson, France) for bacteria, henceforth referred to as RPMI and MHB, respectively.\n(§2) Fungal strains, including reference strains and clinical isolates, were used for the study of the antifungal activity: a yeast reference strain from American Type Culture Collection (ATCC), Candida albicans ATCC 10231; filamentous fungi reference strain Aspergillus fumigatus ATCC 240305; and a clinical isolate of dermatophytes Trichophyton rubrum FF5. Candida krusei ATCC 6258 was used as a quality control. All fungal strains were stored in Sabouraud dextrose broth (SDB—Bio-Mèrieux, Marcy L’Etoile, France) with glycerol (20%) at −80 °C and were subcultured in Sabouraud dextrose agar (SDA—Bio-Mèrieux, Marcy L’Etoile, France) for 24–72 h (yeasts and A. fumigatus) or 5–7 days (T. rubrum) before each assay to obtain optimal growth and purity conditions. Two bacteria strains were used, one Gram positive and one Gram negative: Staphylococcus aureus ATCC 25923 and Escherichia coli ATCC 25922, respectively. The bacterial strains were stored in trypticase soy broth (TSB—Biolife, Milan, Italy) with glycerol (10%) at −80 °C and subcultured in Mueller–Hinton agar (MHA—Bio-Mèrieux, Marcy L’Etoile, France) for 24 h before each assay.\n(§3) For bacteria, MICs were determined by the broth microdilution method, following the recommendations of the reference method M100-S25 [29].\n(§4) Similarly, as previous described, two-fold serial dilutions of each stock solution were prepared using MHB to obtain a range of test concentrations from 16 to 512 μg/mL. Bacterial cell suspensions were prepared from 24-h cultures in saline solution, and the transmittance of cell density was adjusted to 0.5 McFarland standard. Dilutions were performed using MHB to obtain cell final concentrations in the plate of 0.5–2.5 × 10^4 CFU/mL.\n(§5) Plates with the prepared serial dilutions of the tested compounds were inoculated with the same volume of the bacterial suspension, and sterility, growth and DMSO controls were included in each assay. Immediately thereafter, the plates were incubated in a humid atmosphere (aerobic environment) for 18–24 h at 36 °C.\n(§6) MIC values were considered the minimum concentrations that inhibited the bacterial growth by 100% compared to the growth control. The reference drug, gentamicin, was tested as a quality control, and the results were according to the norms.\n(§7) A volume of 10 μL of suspension was collected from wells corresponding to the MIC and the highest following concentration and was deposited in MHA plates. The plates were incubated for 24 h at 36 °C, and the MLC was determined as the lowest concentration at which no bacterial growth was observed."}, "[2]": {"system": "Escherichia coli ATCC 25922", "assay": "Antibacterial broth microdilution (CLSI M100-S25), MIC/MLC", "procedure": "as §1, §2, §3, §4, §5, §6, §7"}, "[3]": {"system": "Candida albicans ATCC 10231", "assay": "Antifungal broth microdilution (CLSI M27-A3), MIC/MLC", "settings": "for MIC: Candida albicans, ATCC10231, broth microdilution, 16 to 512 µg/mL, 48 h at 36 °C", "procedure": "as §1, §2\nFor the purpose of quantitatively measuring the antifungal activity in vitro, a broth microdilution method was used to determine the MICs using the CLSI reference protocols M27-A3 [27] for yeasts and M38-A2 [28] for filamentous fungi. In short, two-fold serial dilutions of each stock solution were prepared using RPMI medium (pH 7) to obtain a range of test concentrations from 16 to 512 μg/mL. The yeasts or spore suspensions were prepared from 24 to 72-h cultures (yeasts and Aspergillus) or from 5–7 days of cultures (dermatophyte) in saline solution (with a drop of Tween 20 for the filamentous fungi). The transmittance of the cell density of yeasts was adjusted to 0.5 McFarland standard, and for filamentous fungi, the spores were counted using a Neubauer camera. Dilutions were performed using RPMI to obtain cell final concentrations in the plate of 0.5–2.5 × 10^3 colony forming units (CFU)/mL for yeasts, 0.4–5 × 10^4 CFU/mL for Aspergillus, and 1–3 × 10^3 CFU/mL for dermatophytes. Plates with the prepared serial dilutions of the tested compounds were inoculated with the same volume of the fungal suspension, and sterility (wells with only culture medium), growth (wells with cell suspensions in culture medium), and DMSO controls (wells with cell suspensions in culture medium containing 1% DMSO) were included in each assay. […] For the tested compounds, MIC values were considered the minimum concentration that inhibited the yeast growth by 100% compared to the growth control. The reference drug, voriconazole, was tested against C. krusei ATCC 6258 as a quality control, and the results were within the limits of CLSI reference documents.\nAfter MIC readings, 10 μL of suspension were collected from wells corresponding to the MIC and the highest concentration following the MIC and were deposited in SDA plates. The plates were incubated following the conditions previously mentioned for the MIC evaluation, and the MLC was determined as the lowest concentration at which no fungal growth is observed."}, "[4]": {"settings": "ATCC25923, broth microdilution, 16 to 512 µg/mL, 18–24 h at 36 °C, read-out: MIC S. aureus"}, "[5]": {"settings": "ATCC25922, broth microdilution, 16 to 512 µg/mL, 18–24 h at 36 °C, read-out: MIC E. coli"}},
  "note": "Where two headings read alike, the source gives them in different places.",
  "data": [
    {"compound": "C=CCc1cc(Cn2cc(C(=O)Nc3ccccc3C(N)=O)nn2)c(O)c(OC)c1", "note": "[9a, 1-(5-allyl-2-hydroxy-3-methoxybenzyl)-N-(2-carbamoylphenyl)-1H-1,2,3-triazole-4-carboxamide]", "values": [
      {"measurement": "MIC", "setting": "[1]; [4]", "result": "> 512", "unit": "µg/mL"},
      {"measurement": "MIC", "setting": "[2]; [5]", "result": "> 512", "unit": "µg/mL"},
      {"measurement": "MIC", "setting": "[3]", "result": "> 512", "unit": "µg/mL"}
    ]},
    {"compound": "C=CCc1cc(Cn2cc(C(=O)Nc3ccc(OC)cc3C(N)=O)nn2)c(O)c(OC)c1", "note": "[9b, 1-(5-allyl-2-hydroxy-3-methoxybenzyl)-N-(2-carbamoyl-4-methoxyphenyl)-1H-1,2,3-triazole-4-carboxamide]", "values": [
      {"measurement": "MIC", "setting": "[1]; [4]", "result": "> 512", "unit": "µg/mL"},
      {"measurement": "MIC", "setting": "[2]; [5]", "result": "> 512", "unit": "µg/mL"},
      {"measurement": "MIC", "setting": "[3]", "result": "> 512", "unit": "µg/mL"}
    ]},
    {"compound": "C=CCc1cc(Cn2cc(C(=O)Nc3ccc(F)cc3C(N)=O)nn2)c(O)c(OC)c1", "note": "[9c, 1-(5-allyl-2-hydroxy-3-methoxybenzyl)-N-(2-carbamoyl-4-fluorophenyl)-1H-1,2,3-triazole-4-carboxamide]", "values": [
      {"measurement": "MIC", "setting": "[1]; [4]", "result": 256, "unit": "µg/mL"},
      {"measurement": "MIC", "setting": "[1]; ATCC25923, second value printed after the MIC of the preceding sentence, read-out: MIC S. aureus (\"the only MIC evaluated\")", "result": "≤ 512", "unit": "µg/mL"},
      {"measurement": "MIC", "setting": "[2]; [5]", "result": "256 to 512", "unit": "µg/mL"},
      {"measurement": "MIC", "setting": "[2]; ATCC25922, second value printed after the MIC of the preceding sentence, read-out: MIC E. coli (\"the only MIC evaluated\")", "result": "> 512", "unit": "µg/mL"},
      {"measurement": "MIC", "setting": "[3]", "result": "> 512", "unit": "µg/mL"}
    ]},
    {"compound": "C=CCc1cc(Cn2cc(C(=O)Nc3ccc(Cl)cc3C(N)=O)nn2)c(O)c(OC)c1", "note": "[9d, 1-(5-allyl-2-hydroxy-3-methoxybenzyl)-N-(2-carbamoyl-4-chlorophenyl)-1H-1,2,3-triazole-4-carboxamide]", "values": [
      {"measurement": "MIC", "setting": "[1]; [4]", "result": "> 512", "unit": "µg/mL"},
      {"measurement": "MIC", "setting": "[2]; [5]", "result": "> 512", "unit": "µg/mL"},
      {"measurement": "MIC", "setting": "[3]", "result": "> 512", "unit": "µg/mL"}
    ]},
    {"compound": "C=CCc1cc(Cn2cc(-c3nc4ccccc4c(=O)[nH]3)nn2)c(O)c(OC)c1", "note": "[10a, 2-(1-(5-allyl-2-hydroxy-3-methoxybenzyl)-1H-1,2,3-triazol-4-yl)quinazolin-4(3H)-one]", "values": [
      {"measurement": "MIC", "setting": "[1]; [4]", "result": "> 512", "unit": "µg/mL"},
      {"measurement": "MIC", "setting": "[2]; [5]", "result": "> 512", "unit": "µg/mL"},
      {"measurement": "MIC", "setting": "[3]", "result": "> 512", "unit": "µg/mL"}
    ]},
    {"compound": "C=CCc1cc(Cn2cc(-c3nc4ccc(OC)cc4c(=O)[nH]3)nn2)c(O)c(OC)c1", "note": "[10b, 2-(1-(5-allyl-2-hydroxy-3-methoxybenzyl)-1H-1,2,3-triazol-4-yl)-6-methoxyquinazolin-4(3H)-one]", "values": [
      {"measurement": "MIC", "setting": "[1]; [4]", "result": "> 512", "unit": "µg/mL"},
      {"measurement": "MIC", "setting": "[2]; [5]", "result": "> 512", "unit": "µg/mL"},
      {"measurement": "MIC", "setting": "[3]", "result": "> 512", "unit": "µg/mL"}
    ]},
    {"compound": "C=CCc1cc(Cn2cc(-c3nc4ccc(F)cc4c(=O)[nH]3)nn2)c(O)c(OC)c1", "note": "[10c, 2-(1-(5-allyl-2-hydroxy-3-methoxybenzyl)-1H-1,2,3-triazol-4-yl)-6-fluoroquinazolin-4(3H)-one]", "values": [
      {"measurement": "MIC", "setting": "[1]; [4]", "result": "> 512", "unit": "µg/mL"},
      {"measurement": "MIC", "setting": "[2]; [5]", "result": "> 512", "unit": "µg/mL"},
      {"measurement": "MIC", "setting": "[3]", "result": "> 512", "unit": "µg/mL"}
    ]},
    {"compound": "C=CCc1ccc(O)c(OC)c1", "note": "[Eugenol, eugenol, reference compound]", "values": [
      {"measurement": "MIC", "setting": "[1]; [4]", "result": "> 512", "unit": "µg/mL"},
      {"measurement": "MIC", "setting": "[2]; [5]", "result": "> 512", "unit": "µg/mL"},
      {"measurement": "MIC", "setting": "[3]", "result": 512, "unit": "µg/mL"},
      {"measurement": "MLC C. albicans", "setting": "[3]; minimum lethal concentration, subculture on SDA after MIC reading", "result": "> 512", "unit": "µg/mL"}
    ]},
    {"compound": "C=CCc1ccc(OCc2cn(CC(=O)Nc3ccccc3C(=O)O)nn2)c(OC)c1", "note": "[compound 13, 2-(2-(4-((4-allyl-2-methoxyphenoxy)methyl)-1H-1,2,3-triazol-1-yl)acetamido) benzoic acid]", "values": [
      {"measurement": "MIC", "setting": "[1]; [4]", "result": "> 512", "unit": "µg/mL"},
      {"measurement": "MIC", "setting": "[2]; [5]", "result": "> 512", "unit": "µg/mL"},
      {"measurement": "MIC", "setting": "[3]", "result": "> 512", "unit": "µg/mL"}
    ]},
    {"compound": "C=CCc1cc(Cn2cc(-c3nc4ccccc4c(=O)o3)nn2)c(O)c(OC)c1", "note": "[compound 14, 2-(1-(5-allyl-2-hydroxy-3-methoxybenzyl)-1H-1,2,3-triazol-4-yl)-4H-benzo[d][1,3]oxazin-4-one]", "values": [
      {"measurement": "MIC", "setting": "[1]; [4]", "result": "> 512", "unit": "µg/mL"},
      {"measurement": "MIC", "setting": "[2]; [5]", "result": "> 512", "unit": "µg/mL"},
      {"measurement": "MIC", "setting": "[3]", "result": "> 512", "unit": "µg/mL"}
    ]}
  ]
}
